Data taken from the supplement of paper PMC10307832.

Assays:
Test in all cases: relative viability (nuclei count vs DMSO), 5 days (fraction); higher = more cells survive
R406 + Foretinib = compound: COc1cc(Nc2ncc(F)c(Nc3ccc4c(n3)NC(=O)C(C)(C)O4)n2)cc(OC)c1OC [R406] + COc1cc2c(Oc3ccc(NC(=O)C4(C(=O)Nc5ccc(F)cc5)CC4)cc3F)ccnc2cc1OCCCN1CCOCC1 [Foretinib] (partner 0.25 µM)
Procedure, shortened: (§1)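 One day after seeding in 1536-well plates, lung cancer cell lines were dosed by pin tool. Dosing was either single-drug or a fixed anchor-drug dose plus five library-drug doses (not always all listed) in √10 steps. After 5 days, nuclei were stained in one fix-and-stain step and counted on 4× images, and relative viability is the nuclei count of treated wells over that of vehicle wells, given as the median of duplicate plates.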

R406 + Decitabine = compound: COc1cc(Nc2ncc(F)c(Nc3ccc4c(n3)NC(=O)C(C)(C)O4)n2)cc(OC)c1OC [R406] + Nc1ncn([C@H]2C[C@H](O)[C@@H](CO)O2)c(=O)n1 [Decitabine] (partner 2 µM)
Procedure, shortened: as §1

Daporinad + Navitoclax = compound: O=C(/C=C/c1cccnc1)NCCCCC1CCN(C(=O)c2ccccc2)CC1 [Daporinad] + CC1(C)CCC(c2ccc(Cl)cc2)=C(CN2CCN(c3ccc(C(=O)NS(=O)(=O)c4ccc(N[C@H](CCN5CCOCC5)CSc5ccccc5)c(S(=O)(=O)C(F)(F)F)c4)cc3)CC2)C1 [Navitoclax] (partner 0.5 µM)
Procedure, shortened: as §1

Daporinad + Decitabine = compound: O=C(/C=C/c1cccnc1)NCCCCC1CCN(C(=O)c2ccccc2)CC1 [Daporinad] + Nc1ncn([C@H]2C[C@H](O)[C@@H](CO)O2)c(=O)n1 [Decitabine] (partner 2 µM)
Procedure, shortened: as §1

Cell Line | relative viability (R406 + Foretinib; first compound 0.08 µM) | relative viability (R406 + Foretinib; first compound 0.253 µM) | relative viability (R406 + Foretinib; first compound 0.8 µM) | relative viability (R406 + Foretinib; first compound 2.53 µM) | relative viability (R406 + Foretinib; first compound 8 µM) | relative viability (R406 + Decitabine; first compound 0.08 µM) | relative viability (R406 + Decitabine; first compound 0.253 µM) | relative viability (R406 + Decitabine; first compound 0.8 µM) | relative viability (R406 + Decitabine; first compound 2.53 µM) | relative viability (R406 + Decitabine; first compound 8 µM) | relative viability (Daporinad + Navitoclax; first compound 0.0005 µM) | relative viability (Daporinad + Navitoclax; first compound 0.001581 µM) | relative viability (Daporinad + Navitoclax; first compound 0.005 µM) | relative viability (Daporinad + Navitoclax; first compound 0.01581 µM) | relative viability (Daporinad + Decitabine; first compound 0.0005 µM) | relative viability (Daporinad + Decitabine; first compound 0.001581 µM) | relative viability (Daporinad + Decitabine; first compound 0.005 µM) | relative viability (Daporinad + Decitabine; first compound 0.01581 µM)
LU99A | 0.801 | 0.794 | 0.914 | 0.588 | 0.345 | 0.972 | 0.87 | 0.888 | 0.61 | 0.591 | 0.71 | 0.833 | 0.94 | 0.931 | 0.898 | 0.908 | 0.943 | 0.645
HCC-78 | 0.562 | 0.602 | 0.642 | 0.57 | 0.56 | 0.566 | 0.785 | 0.702 | 0.749 | 0.61 | 0.644 | 0.935 | 0.842 | 1.05 | 0.805 | 0.744 | 0.669 | 0.65
NCI-H1755 | 0.923 | 0.946 | 0.894 | 0.677 | 0.598 | 0.652 | 0.707 | 0.676 | 0.733 | 0.679 | 0.987 | 0.974 | 1.04 | 0.989 | 0.747 | 0.716 | 0.713 | 0.652
NCI-H3122 | 0.962 | 0.959 | 0.931 | – | 0.887 | 0.368 | 0.398 | 0.328 | 0.508 | 0.482 | 1.01 | 1.02 | 1.02 | 0.987 | 0.308 | 0.417 | 0.392 | 0.321
PC-3 [JPC-3] | 0.981 | 1.08 | 1.09 | 0.827 | 0.372 | 0.912 | 0.898 | 0.974 | 0.747 | 0.62 | 0.763 | 0.796 | 0.827 | 0.789 | 0.84 | 0.781 | 0.91 | 0.907
SK-MES-1 | 0.892 | 0.921 | 0.976 | 0.49 | 0.396 | 0.351 | 0.384 | 0.455 | 0.229 | 0.181 | 1.27 | 1.16 | 1.31 | 0.852 | 0.377 | 0.374 | 0.383 | 0.375
NCI-H2347 | 1.11 | 1.09 | 1.29 | 0.61 | 0.348 | 0.666 | 0.645 | 0.594 | 0.631 | 0.562 | 0.926 | 0.887 | 0.885 | 0.779 | 0.457 | 0.721 | 0.619 | 0.578
EKVX | 0.79 | 1 | 0.821 | 0.567 | 0.609 | 0.341 | 0.365 | 0.316 | 0.336 | 0.354 | 0.808 | 0.914 | 0.97 | 1.11 | 0.307 | 0.391 | 0.36 | 0.359
HOP-62 | 1.03 | 1.28 | 0.967 | 1.26 | 0.808 | 0.26 | 0.229 | 0.22 | 0.221 | 0.438 | 1.06 | 0.975 | 0.943 | 0.404 | 0.176 | 0.209 | 0.208 | 0.179
NCI-H2126 | 1.16 | 0.824 | 1.26 | 1.04 | 1 | 0.618 | 0.629 | 0.638 | 0.545 | 0.582 | 0.914 | 0.751 | 0.845 | 0.874 | 0.618 | 0.524 | 0.638 | 0.584
NCI-H1944 | 0.867 | 0.93 | 0.966 | 0.756 | 0.682 | 0.393 | 0.41 | 0.358 | 0.383 | 0.399 | 1.08 | 1.05 | 0.981 | 1.09 | 0.44 | 0.406 | 0.497 | 0.411
EPLC-272H | 0.425 | 0.617 | 0.792 | 0.304 | 0.126 | 0.354 | 0.391 | 0.436 | 0.26 | 0.21 | 1.22 | 1.47 | 1.28 | 1.38 | 0.318 | 0.375 | 0.378 | 0.403
RERF-LC-KJ | 0.937 | 0.951 | 0.997 | 0.785 | 0.809 | 0.706 | 0.628 | 0.72 | 0.252 | 0.529 | 1.04 | 0.984 | 1.01 | 1.18 | 0.565 | 0.697 | 0.758 | 0.827
PC-14 | 0.919 | 0.941 | 0.97 | 0.875 | 0.635 | 0.301 | 0.237 | 0.25 | 0.0789 | 0.0868 | 1.05 | 1 | 0.875 | 0.721 | 0.189 | 0.199 | 0.23 | 0.144
COR-L 105 | 0.898 | 1.4 | 1.34 | 1.1 | 0.504 | 0.593 | 0.561 | 0.758 | 0.563 | 0.475 | 0.777 | 0.883 | 0.722 | 0.618 | 0.692 | 0.601 | 0.612 | 0.6
NCI-H2405 | 0.961 | 1.15 | 1.11 | 0.934 | 0.775 | 0.703 | 0.814 | 0.756 | 0.615 | 0.369 | 0.948 | 0.962 | 0.684 | 0.321 | 0.796 | 0.807 | 0.751 | 0.379
